Results on four compounds are retold here after ChEMBL document CHEMBL1201862, “PubChem BioAssay data set” (2004).

Holding throughout (test): growth of human tumour cells (NCI), 48 h
The test system of assay [1] is 786-0.
Assay [2] relates to CAKI-1.
In assay [3] the test system is HCT-15.
For assay [4], the system named is LOX IMVI.
The subject of assay [5] is MDA-MB-231.
The subject of assay [6] is MDA-N.
For assay [7], the system named is MOLT-4.
The test system of assay [8] is Malme-3M.
The test system of assay [9] is NCI-H23.
The subject of assay [10] is NCI-H460.
Assay [11] deals with SF-539.
For assay [12], the system named is SK-MEL-5.
The test system of assay [13] is SN12C.
The test system of assay [14] is SNB-75.
In assay [15] the test system is TK-10.
The subject of assay [16] is U-251.
For assay [17], the system named is UACC-62.
For assay [18], the system named is UO-31.
In assay [19] the test system is SF-268.

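These data come from cells grown in 96-well plates and exposed to compound for 48 hours at five concentrations. At the GI50, growth is halved.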 Activity calls are given as the source filed them. Cut-off read from the data, not from the text of the source: active = GI50 up to about 1.1 µM and inactive = higher.

Take `COc1ccc2c(c1)CCC/C2=N\NS(=O)(=O)c1c(C)cc(C)cc1C`: the GI50 in [1] was 19.1 µM (inactive); in assay [2] it was 38.5 µM (inactive); in assay [3] it was 30.3 µM; in assay [4], 19.4 µM (inactive); in assay [5], 30.8 µM (inactive); in assay [6] it was 28.6 µM (inactive). For the same compound, the GI50 in assay [7] is 25.5 µM (inactive); in assay [8], 24.4 µM (inactive); in assay [9], 24.8 µM (inactive); in assay [10], 31 µM (inactive); in [11], 19.2 µM (inactive); in assay [12], 17.3 µM (inactive). The GI50 in assay [13] was 21.8 µM (inactive); in assay [14], 13.8 µM (inactive); in assay [15], 51.4 µM (inactive); in [16], 31.6 µM (inactive); in assay [17], 18.7 µM (inactive); in assay [18], 28.9 µM (inactive).

As to `CC(N)(CC(O)(C(F)(F)Cl)C(F)(F)Cl)C(=O)O` (stereo not given), the GI50 in assay [1] is > 10 µM (inactive); in assay [2] it was > 10 µM (inactive); in [3], over 10 µM; in [4], > 10 µM (inactive); in assay [5] it was > 10 µM (inactive); in assay [6] it was > 10 µM (inactive). For the same compound, the GI50 in [7], in assay [8], in [9], in [10], in [19] and in assay [11] was > 10 µM (inactive) in each case. For the same compound, the GI50 in [12], in assay [13], in assay [14], in [15], in assay [16] and in assay [17] was > 10 µM (inactive) throughout. The GI50 in assay [18] is > 10 µM (inactive).

On to `CC(=O)NC(CC(C)C)C(=O)NC(CC(C)C)C(=O)NC(C=O)CCCNC(=N)N` (stereo not given), for which the GI50 in [1] is > 100 µM (inactive); in assay [2] it was > 100 µM (inactive); in assay [3] it was over 100 µM; in assay [4], > 100 µM (inactive); in [5], > 100 µM (inactive); in assay [6], > 100 µM (inactive). Besides, the GI50 in assay [7] is 65 µM (inactive); in [8], 72.6 µM (inactive); in [9] it was > 100 µM (inactive); in assay [10], > 100 µM (inactive); in [19], > 100 µM (inactive); in assay [11], > 100 µM (inactive). Moreover, the GI50 in assay [12], in assay [13], in assay [14], in assay [15], in assay [16] and in assay [17] was > 100 µM (inactive) each time. Moreover, the GI50 in assay [18] was > 100 µM (inactive).

As for `NC1=Nc2cc(Cl)ccc2Sc2nc3ccccc3n21`, the GI50 in assay [1] is 14.2 µM (inactive); in assay [2] it was > 100 µM (inactive); in assay [3], over 100 µM; in assay [4] it was 4.4 µM (inactive); in [5], > 20.7 µM (inactive); in [6], 3.44 µM (inactive). For the same compound, the GI50 is 2.61 µM (inactive) in assay [7]; > 100 µM (inactive) in assay [8]; 6.53 µM (inactive) in assay [9]; 4.13 µM (inactive) in [10]; > 61.5 µM (inactive) in assay [19]; > 100 µM (inactive) in assay [11]. Moreover, the GI50 is 4.92 µM (inactive) in assay [12]; > 100 µM (inactive) in assay [13]; 21.4 µM (inactive) in [14]; > 88.9 µM (inactive) in assay [15]; 4.48 µM (inactive) in assay [16]; 4.66 µM (inactive) in assay [17]. Moreover, in assay [18], the GI50 was > 100 µM (inactive).
